Consider one compound from US12290511B2, “Pharmaceutical preparation containing pyridyl aminoacetic acid compound” (Santen Pharmaceutical Co., Ltd., priority 2017, dated 2025).

For this assay, the system named is patients with primary open angle glaucoma or ocular hypertension resistant to treatment with latanoprost ophthalmic solution. The assay is described as follows: Clinical test: 0.002% (w/v) omidenepag isopropyl eye drop A in patients resistant to latanoprost ophthalmic solution. It is filed as in vivo, humans. How it is done: Examination was conducted on the efficacy of omidenepag isopropyl on patients with inadequate efficacies of other glaucoma or ocular hypertension therapeutic agents.
Omidenepag isopropyl, polyoxyl 35 castor oil, glycerin, citric acid, sodium citrate, sodium edetate, and benzalkonium chloride were dissolved into purified water to adjust the pH. Thereafter, purified water was added to adjust the total volume, thereby preparing a 0.002% (w/v) omidenepag isopropyl eye drop A.
Patients with primary open angle glaucoma or ocular hypertension were subjected to a washout period of 1 to 4 weeks, and then received a binocular instillation of 0.005% latanoprost ophthalmic solution in an amount of 1 drop once a day for 8 weeks as an induction phase (week −8 to baseline). The patients with primary open angle glaucoma (21 humans) or ocular hypertension (5 humans) resistant to treatment with latanoprost ophthalmic solution, whose rate of decrease in intraocular pressure from the start of instillation was 15% or less at the end of the induction phase, entered the treatment phase (baseline to week 4), and received a binocular instillation of the above-described 0.002% (w/v) omidenepag isopropyl eye drop A in an amount of 1 drop (about 0.03 mL) once a day for 4 weeks every day.

Molecules are shown by their SMILES.

Take `CC(C)OC(=O)CNc1cccc(CN(Cc2ccc(-n3cccn3)cc2)S(=O)(=O)c2cccnc2)n1` [omidenepag isopropyl, isopropyl (6-{[4-(pyrazol-1-yl)benzyl](pyridin-3-ylsulfonyl)aminomethyl}pyridin-2-ylamino)acetate]: the “intraocular pressure lowering compared with latanoprost instillation” value is “lowers intraocular pressure to a greater extent than latanoprost instillation”.
